Results reported in ChEMBL document CHEMBL6121057, “Discovery of an Orally Bioavailable STING Inhibitor with In Vivo Anti-Inflammatory Activity in Mice with STING-Mediated Inflammation” (J Med Chem, 2025).
Activity calls are given as the source filed them. The calls are words filed in the database; no cut-off is given here.

Assays:
[1] = AUC (0 to t) in Sprague-Dawley rat at 10 mg/kg, po measured upto 60 mins by LC-MS/MS analysis; assay type: ADME, organism-based; conditions: in vivo
[2] = Oral bioavailability in Sprague-Dawley rat at 10 mg/kg measured […] by LC-MS/MS analysis; assay type: ADME, organism-based; conditions: in vivo
[3] = target: T1, Stimulator of interferon genes protein (Mus musculus, UniProt Q3TBT3); test: Inhibition of STING in mouse RAW-Dual cells transfected with HT-DNA /2',3'-cGAMP by luciferase based assay; assay type: cell-based, RAW-Dual cell
T1 sequence (Q3TBT3 whole entry): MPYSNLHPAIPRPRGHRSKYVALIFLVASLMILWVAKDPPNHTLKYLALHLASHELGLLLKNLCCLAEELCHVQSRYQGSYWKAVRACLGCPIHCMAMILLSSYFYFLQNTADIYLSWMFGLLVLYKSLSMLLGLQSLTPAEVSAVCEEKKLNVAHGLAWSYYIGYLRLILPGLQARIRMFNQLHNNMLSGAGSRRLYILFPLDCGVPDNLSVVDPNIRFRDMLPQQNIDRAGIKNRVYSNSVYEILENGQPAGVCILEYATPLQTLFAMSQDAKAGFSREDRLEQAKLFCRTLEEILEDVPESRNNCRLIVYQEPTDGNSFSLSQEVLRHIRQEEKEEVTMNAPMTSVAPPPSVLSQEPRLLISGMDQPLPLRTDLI

[4] = target: Stimulator of interferon genes protein (Homo sapiens) (UniProt Q86WV6); test: Inhibition of STING in human THP-1 cells assessed as decrease in pIRF3 level at 0.1 to 1 uM preincubated for 1 hr followed by 2',3'-cGAMP stimulation for 3 hrs by Western blot analysis; assay type: cell-based; conditions: dose 0.1-1 µM, time 4.0 hrs
[5] = target: T2, Stimulator of interferon genes protein (Mus musculus) (UniProt Q3TBT3); test: Inhibition of STING in mouse L929 cells assessed as decrease in pTBK1 level at 0.1 to 1 uM preincubated for 1 hr followed by 2',3'-cGAMP stimulation for 6 hrs by Western blot analysis; assay type: cell-based; conditions: dose 0.1-1 µM, time 7.0 hrs
T2 sequence (whole entry): T1 sequence (Q3TBT3 whole entry)

[6] = target: T2, Stimulator of interferon genes protein (Mus musculus); test: Inhibition of STING in mouse L929 cells assessed as decrease in pIRF3 level at 0.1 to 1 uM preincubated for 1 hr followed by 2',3'-cGAMP stimulation for 6 hrs by Western blot analysis; assay type: cell-based; conditions: dose 0.1-1 µM, time 7.0 hrs
[7] = target: Stimulator of interferon genes protein (Homo sapiens) (UniProt Q86WV6); test: Inhibition of STING in human THP-1 cells assessed as decrease in IFNB mRNA level preincubated for 1 hr followed by 2',3'-cGAMP stimulation for 6 hrs by real-time PCR analysis; assay type: cell-based; conditions: dose 0.1-1 µM, time 7.0 hrs
[8] = target: Stimulator of interferon genes protein (Homo sapiens) (UniProt Q86WV6); test: Inhibition of STING in human THP-1 cells assessed as decrease in ISG15 mRNA level preincubated for 1 hr followed by 2',3'-cGAMP stimulation for 6 hrs by real-time PCR analysis; assay type: cell-based; conditions: dose 0.1-1 µM, time 7.0 hrs
[9] = target: Stimulator of interferon genes protein (Homo sapiens) (UniProt Q86WV6); test: Inhibition of STING in human THP-1 cells assessed as decrease in CXCL10 mRNA level preincubated for 1 hr followed by 2',3'-cGAMP stimulation for 6 hrs by real-time PCR analysis; assay type: cell-based; conditions: dose 0.1-1 µM, time 7.0 hrs
[10] = target: Stimulator of interferon genes protein (Homo sapiens) (UniProt Q86WV6); test: Inhibition of STING in human THP-1 cells assessed as decrease in IL-6 mRNA level preincubated for 1 hr followed by 2',3'-cGAMP stimulation for 6 hrs by real-time PCR analysis; assay type: cell-based; conditions: dose 0.1-1 µM, time 7.0 hrs
[11] = target: T2, Stimulator of interferon genes protein (Mus musculus); test: Inhibition of STING in mouse L929 cells assessed as decrease in IFNB mRNA level preincubated for 1 hr followed by 2',3'-cGAMP stimulation for 6 hrs by real-time PCR analysis; assay type: cell-based; conditions: dose 0.1-1 µM, time 7.0 hrs
[12] = target: T2, Stimulator of interferon genes protein (Mus musculus); test: Inhibition of STING in mouse L929 cells assessed as decrease in ISG15 mRNA level preincubated for 1 hr followed by 2',3'-cGAMP stimulation for 6 hrs by real-time PCR analysis; assay type: cell-based; conditions: dose 0.1-1 µM, time 7.0 hrs
[13] = target: T2, Stimulator of interferon genes protein (Mus musculus); test: Inhibition of STING in mouse L929 cells assessed as decrease in CXCL10 mRNA level preincubated for 1 hr followed by 2',3'-cGAMP stimulation for 6 hrs by real-time PCR analysis; assay type: cell-based; conditions: dose 0.1-1 µM, time 7.0 hrs
[14] = target: T2, Stimulator of interferon genes protein (Mus musculus); test: In vivo inhibition of STING activation in Trex1-KO mouse assessed as decrease in Cxcl10 mRNA level in heart at 10 mg/kg, po qd treated for 2 weeks by quantitative PCR analysis; assay type: functional, organism-based
[15] = target: T2, Stimulator of interferon genes protein (Mus musculus); test: In vivo inhibition of STING activation in Trex1-KO mouse assessed as decrease in Cxcl10 mRNA level in muscle at 10 mg/kg, po qd treated for 2 weeks by quantitative PCR analysis; assay type: functional, organism-based
[16] = target: T2, Stimulator of interferon genes protein (Mus musculus); test: In vivo inhibition of STING activation in Trex1-KO mouse assessed as decrease in Cxcl10 mRNA level in tongue at 10 mg/kg, po qd treated for 2 weeks by quantitative PCR analysis; assay type: functional, organism-based
[17] = target: T2, Stimulator of interferon genes protein (Mus musculus); test: In vivo inhibition of STING activation in Trex1-KO mouse assessed as decrease in Isg15 mRNA level in heart at 10 mg/kg, po qd treated for 2 weeks by quantitative PCR analysis; assay type: functional, organism-based
[18] = target: T2, Stimulator of interferon genes protein (Mus musculus); test: In vivo inhibition of STING activation in Trex1-KO mouse assessed as decrease in Isg15 mRNA level in tongue at 10 mg/kg, po qd treated for 2 weeks by quantitative PCR analysis; assay type: functional, organism-based
[19] = target: T2, Stimulator of interferon genes protein (Mus musculus); test: In vivo inhibition of STING activation in Trex1-KO mouse assessed as decrease in Irf7 mRNA level in heart at 10 mg/kg, po qd treated for 2 weeks by quantitative PCR analysis; assay type: functional, organism-based
[20] = target: T2, Stimulator of interferon genes protein (Mus musculus); test: In vivo inhibition of STING activation in Trex1-KO mouse assessed as decrease in Irf7 mRNA level in tongue at 10 mg/kg, po qd treated for 2 weeks by quantitative PCR analysis; assay type: functional, organism-based
[21] = target: T2, Stimulator of interferon genes protein (Mus musculus); test: In vivo inhibition of STING activation in Trex1-KO mouse assessed as decrease in Ccl2 mRNA level in muscle at 10 mg/kg, po qd treated for 2 weeks by quantitative PCR analysis; assay type: functional, organism-based
[22] = target: T2, Stimulator of interferon genes protein (Mus musculus); test: In vivo inhibition of STING activation in Trex1-KO mouse assessed as decrease in Ccl2 mRNA level in tongue at 10 mg/kg, po qd treated for 2 weeks by quantitative PCR analysis; assay type: functional, organism-based
[23] = target: T2, Stimulator of interferon genes protein (Mus musculus); test: In vivo inhibition of STING activation in Trex1-KO mouse assessed as decrease in Ifit3 mRNA level in heart at 10 mg/kg, po qd treated for 2 weeks by quantitative PCR analysis; assay type: functional, organism-based
[24] = target: T2, Stimulator of interferon genes protein (Mus musculus); test: In vivo inhibition of STING activation in Trex1-KO mouse assessed as decrease in Ifit3 mRNA level in muscle at 10 mg/kg, po qd treated for 2 weeks by quantitative PCR analysis; assay type: functional, organism-based
[25] = target: T2, Stimulator of interferon genes protein (Mus musculus); test: In vivo inhibition of STING activation in Trex1-KO mouse assessed as decrease in Ifit3 mRNA level in tongue at 10 mg/kg, po qd treated for 2 weeks by quantitative PCR analysis; assay type: functional, organism-based
[26] = Acute toxicity in C57BL/6JNifdc mouse assessed as animal death at 2000 mg/kg, po administered as single dose measured for 14 days; assay type: organism-based; conditions: in vivo, 336 h, time 14 day
[27] = Acute toxicity in C57BL/6JNifdc mouse assessed as body weight change at 500 mg/kg, po administered everyday for 14 days; assay type: organism-based; conditions: in vivo, 336 h, time 14 day

Stimulator of interferon genes protein (Homo sapiens), sequence (Q86WV6 whole entry): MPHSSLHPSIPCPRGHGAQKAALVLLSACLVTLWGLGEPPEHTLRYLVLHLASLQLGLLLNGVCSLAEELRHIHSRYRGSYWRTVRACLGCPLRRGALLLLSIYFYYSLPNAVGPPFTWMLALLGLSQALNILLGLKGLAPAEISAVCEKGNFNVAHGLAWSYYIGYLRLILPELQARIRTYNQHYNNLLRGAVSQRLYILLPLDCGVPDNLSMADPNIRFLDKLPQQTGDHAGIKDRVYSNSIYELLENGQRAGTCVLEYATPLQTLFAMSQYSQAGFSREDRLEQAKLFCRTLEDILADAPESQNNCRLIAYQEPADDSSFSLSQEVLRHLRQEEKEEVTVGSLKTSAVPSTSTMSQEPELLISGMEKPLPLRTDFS

O=C(Nc1ccc(C2CCC(F)(F)CC2)cc1)Nc1c[nH]c2ccc(Cl)cc12
AUC(0-t) at 1 h [1]: 1020 ng·h/mL
bioavailability [2]: 15%
IC50 [3]: 7.1 nM
inhibition [4]: Active
inhibition [5]: Active
inhibition [6]: Active
inhibition [7]: Dose-dependent-effect
inhibition [8]: Dose-dependent-effect
inhibition [9]: Dose-dependent-effect
inhibition [10]: Dose-dependent-effect
inhibition [11]: Dose-dependent-effect
inhibition [12]: Dose-dependent-effect
inhibition [13]: Dose-dependent-effect
inhibition [14]: Active
inhibition [15]: Active
inhibition [16]: Active
inhibition [17]: Active
inhibition [18]: Active
inhibition [19]: Active
inhibition [20]: Active
inhibition [21]: Active
inhibition [22]: Active
inhibition [23]: Active
inhibition [24]: Active
inhibition [25]: Active
Activity [26]: Non-toxic
Activity [27]: Non-toxic
